IC50 data for 22 compounds are collected here from patent publication US20250236608A1, “EGFR INHIBITORS” (Blueprint Medicines Corporation, priority 2022, published 2025).

Structures are written as SMILES.

For assay [1], the target named is EGFR L858R (Homo sapiens (Human), UniProt P00533, L858R). Nature of the assay: Biochemical EGFR inhibition assay, EGFR L858R. As to conditions: Caliper mobility shift; 1.0 mM ATP or ATP Km; read-out: Enz EGFR_L858R IC50.
In assay [2] the target is EGFR (d746-750) (Homo sapiens (Human), UniProt P00533, DEL746-750). Put plainly: Biochemical EGFR inhibition assay, EGFR (d746-750). Particulars: Caliper mobility shift; 1.0 mM ATP or ATP Km; read-out: Enz EGFR_Exon19-del746-750 IC50.
Assay [3] has as its target pEGFR (Tyr1068) in PC-9 cells (Ex19Del) (Homo sapiens (Human), UniProt P00533, DEL746-750). Put plainly: PC-9 pEGFR AlphaLISA assay. In kind it is cell-based. Particulars: 4 hours incubation, p-EGFR (Tyr1068) AlphaLISA, read-out: Ext pEGFR_PC-9 Ex19Del IC50. In short, it runs like this:
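Phospho-EGFR (Tyr1068) was quantified by AlphaLISA SureFire Ultra in lysates of PC-9 cells exposed for 4 h to compound (4-fold, 10-point dilutions).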
On the technique in general: Alpha assays give light when donor and acceptor beads are brought close together.

EGFR L858R, sequence (P00533 25-1210 L858R): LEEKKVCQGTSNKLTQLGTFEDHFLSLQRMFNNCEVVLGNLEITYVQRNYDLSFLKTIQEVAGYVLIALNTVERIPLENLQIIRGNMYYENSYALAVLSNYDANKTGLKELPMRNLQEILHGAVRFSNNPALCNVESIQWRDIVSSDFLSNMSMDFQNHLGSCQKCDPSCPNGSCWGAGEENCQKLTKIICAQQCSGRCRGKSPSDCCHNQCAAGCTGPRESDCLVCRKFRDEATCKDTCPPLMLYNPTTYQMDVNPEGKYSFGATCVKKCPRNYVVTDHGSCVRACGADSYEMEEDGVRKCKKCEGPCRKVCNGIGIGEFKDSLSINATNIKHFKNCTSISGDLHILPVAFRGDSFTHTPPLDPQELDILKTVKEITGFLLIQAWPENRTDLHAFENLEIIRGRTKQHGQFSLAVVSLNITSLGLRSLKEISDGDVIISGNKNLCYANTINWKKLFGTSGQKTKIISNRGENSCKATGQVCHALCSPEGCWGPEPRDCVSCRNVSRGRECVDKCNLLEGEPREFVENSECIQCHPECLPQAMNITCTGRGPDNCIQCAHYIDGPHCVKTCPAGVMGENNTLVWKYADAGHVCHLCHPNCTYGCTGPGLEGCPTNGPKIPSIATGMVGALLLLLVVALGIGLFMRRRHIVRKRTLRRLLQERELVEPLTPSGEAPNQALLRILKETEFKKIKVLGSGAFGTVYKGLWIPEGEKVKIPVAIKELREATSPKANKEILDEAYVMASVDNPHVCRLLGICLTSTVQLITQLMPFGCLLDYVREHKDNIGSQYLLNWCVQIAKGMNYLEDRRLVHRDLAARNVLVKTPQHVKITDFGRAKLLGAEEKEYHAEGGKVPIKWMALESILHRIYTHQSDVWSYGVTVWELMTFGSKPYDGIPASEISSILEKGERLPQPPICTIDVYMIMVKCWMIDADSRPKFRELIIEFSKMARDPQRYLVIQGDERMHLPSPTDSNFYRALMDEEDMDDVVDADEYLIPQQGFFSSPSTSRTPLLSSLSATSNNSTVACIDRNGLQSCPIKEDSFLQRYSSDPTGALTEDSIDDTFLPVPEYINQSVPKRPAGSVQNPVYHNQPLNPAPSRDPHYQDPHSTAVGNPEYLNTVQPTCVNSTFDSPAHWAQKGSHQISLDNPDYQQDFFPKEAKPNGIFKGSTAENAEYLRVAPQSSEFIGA
pEGFR (Tyr1068) in PC-9 cells (Ex19Del), sequence (P00533 other isoform, or with tags, fused parts or gaps del 746-750): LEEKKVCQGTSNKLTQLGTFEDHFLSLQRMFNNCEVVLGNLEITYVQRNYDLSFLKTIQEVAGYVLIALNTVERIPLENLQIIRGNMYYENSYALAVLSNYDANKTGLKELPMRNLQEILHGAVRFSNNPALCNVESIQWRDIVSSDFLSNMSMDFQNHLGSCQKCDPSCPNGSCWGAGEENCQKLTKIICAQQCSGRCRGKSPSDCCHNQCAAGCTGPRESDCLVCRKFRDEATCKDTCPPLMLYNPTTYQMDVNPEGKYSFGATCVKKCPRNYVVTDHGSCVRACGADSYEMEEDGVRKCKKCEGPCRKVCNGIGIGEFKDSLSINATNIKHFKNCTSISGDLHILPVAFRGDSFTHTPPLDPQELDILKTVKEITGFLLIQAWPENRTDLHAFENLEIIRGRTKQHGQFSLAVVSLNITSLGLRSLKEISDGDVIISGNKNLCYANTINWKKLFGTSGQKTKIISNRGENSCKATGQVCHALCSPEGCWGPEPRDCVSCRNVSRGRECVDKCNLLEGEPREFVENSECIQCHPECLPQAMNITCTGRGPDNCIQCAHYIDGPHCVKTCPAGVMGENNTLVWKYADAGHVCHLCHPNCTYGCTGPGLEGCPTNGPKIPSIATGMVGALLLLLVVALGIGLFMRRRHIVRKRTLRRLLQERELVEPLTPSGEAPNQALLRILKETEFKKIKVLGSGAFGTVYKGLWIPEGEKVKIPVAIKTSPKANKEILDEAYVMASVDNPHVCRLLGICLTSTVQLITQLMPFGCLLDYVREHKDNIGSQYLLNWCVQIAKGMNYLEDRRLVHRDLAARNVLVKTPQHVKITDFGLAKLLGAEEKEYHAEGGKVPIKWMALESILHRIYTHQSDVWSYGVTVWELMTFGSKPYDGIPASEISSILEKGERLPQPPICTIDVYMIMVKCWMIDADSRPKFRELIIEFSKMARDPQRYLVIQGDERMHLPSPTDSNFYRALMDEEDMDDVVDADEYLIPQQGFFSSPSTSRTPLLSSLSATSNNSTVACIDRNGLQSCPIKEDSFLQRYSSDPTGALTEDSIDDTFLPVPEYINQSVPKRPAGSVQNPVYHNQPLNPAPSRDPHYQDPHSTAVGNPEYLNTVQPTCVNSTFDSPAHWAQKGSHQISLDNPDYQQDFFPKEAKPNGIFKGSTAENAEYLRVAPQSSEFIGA
EGFR (d746-750), sequence (P00533 other isoform, or with tags, fused parts or gaps del 1-694/del 746-750 limits assumed): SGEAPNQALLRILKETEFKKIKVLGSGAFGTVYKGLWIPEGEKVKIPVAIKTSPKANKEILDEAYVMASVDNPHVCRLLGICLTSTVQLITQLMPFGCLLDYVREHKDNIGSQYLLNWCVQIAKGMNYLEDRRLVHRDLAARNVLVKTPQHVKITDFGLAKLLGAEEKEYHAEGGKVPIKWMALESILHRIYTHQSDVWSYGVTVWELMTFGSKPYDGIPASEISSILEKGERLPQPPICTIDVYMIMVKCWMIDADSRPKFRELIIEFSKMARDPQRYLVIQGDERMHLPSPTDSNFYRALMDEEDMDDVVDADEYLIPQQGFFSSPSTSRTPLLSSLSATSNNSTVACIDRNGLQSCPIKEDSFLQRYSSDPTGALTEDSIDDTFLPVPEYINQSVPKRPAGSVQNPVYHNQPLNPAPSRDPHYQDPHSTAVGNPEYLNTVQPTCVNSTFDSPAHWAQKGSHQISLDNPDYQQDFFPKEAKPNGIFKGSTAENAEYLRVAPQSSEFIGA

By IC50 is commonly meant the concentration that gives 50% inhibition. Regarding `COc1cc2ncnc(-c3cn(C4COC4)nc3-c3ccccc3)c2cc1OC(=O)N1CCN(C)C[C@@H]1C` [Example 69, 7-methoxy-4-(1-(oxetan-3-yl)-3-phenyl-1H-pyrazol-4-yl)quinazolin-6-yl (S)-2,4-dimethylpiperazine-1-carboxylate], the IC50 in assay [1] amounted to 7.1 nM; in assay [2] it was 3.1 nM; in assay [3] it was 5.8 nM.

In the case of `COc1cc2ncnc(-c3cn(C)nc3-c3ccccc3)c2cc1NC(=O)c1cnccc1F` [Example 326, 4-fluoro-N-(7-methoxy-4-(1-methyl-3-phenyl-1H-pyrazol-4-yl)quinazolin-6-yl) nicotinamide], the IC50 in assay [1] was determined as 1.2 nM; in assay [2], 0.8 nM; in assay [3] it was 1 nM.

In the case of `COc1cc2ncnc(-c3cn(C)nc3-c3ccccc3)c2cc1OC(=O)N1CCO[C@@H]2C[C@@H]21` (racemic) [Example 83, Cis-rac-7-methoxy-4-(1-methyl-3-phenyl-1H-pyrazol-4-yl)quinazolin-6-yl (1R,6S)-2-oxa-5-azabicyclo[4.1.0]heptane-5-carboxylate], the IC50 in assay [1] was found to be 3 nM; in assay [2], 2.2 nM; in assay [3] it was 4.9 nM.

Consider `COc1cc2ncnc(-c3cn(C)nc3-c3ccccc3)c2cc1OC(=O)N1CCOCC1(C)C` [Example 81, 7-methoxy-4-(1-methyl-3-phenyl-1H-pyrazol-4-yl)quinazolin-6-yl 3,3-dimethylmorpholine-4-carboxylate], for which the IC50 in assay [1] was determined as 6.1 nM; in assay [2], 2.2 nM; in assay [3] it was 5.2 nM.

With `COc1cc2ncnc(-c3cn(C)nc3-c3ccccc3)c2cc1NC(=O)C12COCC1C2` (stereo not drawn) [Example 278, N-(7-methoxy-4-(1-methyl-3-phenyl-1H-pyrazol-4-yl)quinazolin-6-yl)-3-oxabicyclo[3.1.0]hexane-1-carboxamide], the IC50 worked out at 4.5 nM in assay [1], 2.3 nM in assay [2] and 7.8 nM in assay [3].

Regarding `COc1cc2ncnc(-c3cn(C)nc3-c3ccccc3)c2cc1NC(=O)N1C[C@H](C)N(C)C[C@@H]1C` [Example 178, (2S,5S)—N-(7-methoxy-4-(1-methyl-3-phenyl-1H-pyrazol-4-yl)quinazolin-6-yl)-2,4,5-trimethylpiperazine-1-carboxamide], the IC50 in assay [1] was found to be 6.2 nM; in assay [2], 3.3 nM; in assay [3] it was 5.4 nM.

Regarding `COc1cc2ncnc(-c3cn(C)nc3-c3ccccc3)c2cc1NC(=O)C(C)F` (stereo not drawn) [Example 221, 2-fluoro-N-(7-methoxy-4-(1-methyl-3-phenyl-1H-pyrazol-4-yl)quinazolin-6-yl)propanamide], the values for the IC50 in assay [1], in assay [2] and in assay [3] were 1.8 nM, 1 nM and 2.3 nM, respectively.

Take `COc1cc2ncnc(-c3cn(CC(F)F)nc3-c3ccccc3)c2cc1OC(=O)N1CCOC[C@@H]1C` [Example 76, 4-(1-(2,2-difluoroethyl)-3-phenyl-1H-pyrazol-4-yl)-7-methoxyquinazolin-6-yl (S)-3-methylmorpholine-4-carboxylate]: the IC50 in assay [1] was determined as 2.1 nM; in assay [2], 0.9 nM; in assay [3] it was 1.4 nM.

Take `COc1cc2ncnc(-c3cn(CC(F)F)nc3-c3ccccc3)c2cc1N1CCOCC1` [Example 168, 4-(4-(1-(2,2-difluoroethyl)-3-phenyl-1H-pyrazol-4-yl)-7-methoxyquinazolin-6-yl)morpholine]: the figures for the IC50 in assay [1], in assay [2] and in assay [3] were 1.5 nM, 1 nM and 0.8 nM, respectively.

Turning to `COc1cc2ncnc(-c3cn(C)nc3-c3ccc(F)cc3)c2nc1NC(=O)[C@@]12COC[C@@H]1C2` (single isomer, unassigned) [Example 382, (1R,5R)—N-(4-(3-(4-fluorophenyl)-1-methyl-1H-pyrazol-4-yl)-7-methoxypyrido[3,2-d]pyrimidin-6-yl)-3-oxabicyclo[3.1.0]hexane-1-carboxamide or (1S,5S)—N-(4-(3-(4-fluorophenyl)-1-methyl-1H-pyrazol-4-yl)-7-methoxypyrido[3,2-d]pyrimidin-6-yl)-3-oxabicyclo[3.1.0]hexane-1-carboxamide], the IC50 in assay [1] is 2.4 nM; in assay [2], 0.6 nM; in assay [3], 1.6 nM.

Take `CCOc1cc2ncnc(-c3cn(C4CC4)nc3-c3ccccc3)c2cc1[C@@H](C)O` (single isomer, unassigned) [Example 111, (R)-1-(4-(1-cyclopropyl-3-phenyl-1H-pyrazol-4-yl)-7-ethoxyquinazolin-6-yl)ethan-1-ol or (S)-1-(4-(1-cyclopropyl-3-phenyl-1H-pyrazol-4-yl)-7-ethoxyquinazolin-6-yl)ethan-1-ol]: the results for the IC50 in assay [1], in assay [2] and in assay [3] were 1.4 nM, 0.7 nM and 2.5 nM, respectively.

For the compound `COc1cc2ncnc(-c3cn(C)nc3-c3ccccc3)c2cc1NC(=O)c1nc(C)ccc1F` [Example 330, 3-fluoro-N-(7-methoxy-4-(1-methyl-3-phenyl-1H-pyrazol-4-yl)quinazolin-6-yl)-6-methylpicolinamide], the IC50 in assay [1] is 1 nM; in assay [2], 0.7 nM; in assay [3], 0.8 nM.

As to `COc1cc2c(-c3cn(C)nc3-c3ccccc3)ncnc2cc1N1CC2(CN(C(C)=O)C2)C1` [Example 447, 1-(6-(6-methoxy-4-(1-methyl-3-phenyl-1H-pyrazol-4-yl)quinazolin-7-yl)-2,6-diazaspiro[3.3]heptan-2-yl)ethan-1-one], the IC50 in assay [1] turned out to be 1.6 nM; in assay [2], 0.9 nM; in assay [3], 1.6 nM.

Turning to `CCC(=O)Nc1cc2c(-c3cn(C4COC4)nc3-c3ccccc3)ncnc2cc1OC` [Example 249, N-(7-methoxy-4-(1-(oxetan-3-yl)-3-phenyl-1H-pyrazol-4-yl)quinazolin-6-yl)propionamide], the IC50 stood at 2.2 nM in assay [1], 1.4 nM in assay [2] and 2.1 nM in assay [3].

Turning to `COc1cc2ncnc(-c3cn(C)nc3-c3ccccc3)c2cc1NC(=O)[C@@H]1CCN(C)C[C@H]1F` [Example 284, (3S,4S)-3-fluoro-N-(7-methoxy-4-(1-methyl-3-phenyl-1H-pyrazol-4-yl)quinazolin-6-yl)-1-methylpiperidine-4-carboxamide], the figures for the IC50 in assay [1], in assay [2] and in assay [3] were 8.7 nM, 4.7 nM and 18.7 nM, respectively.

Regarding `COc1cc2ncnc(-c3cn(C)nc3-c3ccccc3)c2nc1NC(=O)C1CC1` [Example 355, N-(7-methoxy-4-(1-methyl-3-phenyl-1H-pyrazol-4-yl)pyrido[3,2-d]pyrimidin-6-yl)cyclopropanecarboxamide], the IC50 in assay [1] was found to be 1.7 nM; in assay [2], 1 nM; in assay [3], 0.8 nM.

For the compound `COc1cc2ncnc(-c3cn(CC(F)F)nc3-c3ccccc3)c2cc1[C@H](C)O` (single isomer, unassigned) [Example 101, (S)-1-(4-(1-(2,2-difluoroethyl)-3-phenyl-1H-pyrazol-4-yl)-7-methoxyquinazolin-6-yl)ethan-1-ol or (R)-1-(4-(1-(2,2-difluoroethyl)-3-phenyl-1H-pyrazol-4-yl)-7-methoxyquinazolin-6-yl)ethan-1-ol], the half-maximal inhibitory concentration (IC50) is 3.2 nM in assay [1], 1.9 nM in assay [2] and 5.7 nM in assay [3].

Take `COc1cc2ncnc(-c3cn(C)nc3-c3ccccc3)c2nc1NC(=O)[C@H]1C[C@H]2C[C@H]2N1C` [Example 419, (1R,3R,5R)—N-(7-methoxy-4-(1-methyl-3-phenyl-1H-pyrazol-4-yl)pyrido[3,2-d]pyrimidin-6-yl)-2-methyl-2-azabicyclo[3.1.0]hexane-3-carboxamide]: the IC50 in assay [1] is 1.6 nM; in assay [2], 1 nM; in assay [3], 0.4 nM.

On to `CCn1cc(-c2ncnc3cc(OC)c(NC(=O)[C@@]45COC[C@@H]4C5)cc23)c(-c2ccc(F)cc2)n1` [Example 334, (1R,5R)—N-(4-(1-ethyl-3-(4-fluorophenyl)-1H-pyrazol-4-yl)-7-methoxyquinazolin-6-yl)-3-oxabicyclo[3.1.0]hexane-1-carboxamide], for which the IC50 in assay [1] was found to be 2.4 nM; in assay [2] it was 1.5 nM; in assay [3], 2.2 nM.

On to `COc1cc2ncnc(-c3cn(C)nc3-c3ccccc3)c2nc1NC(=O)[C@]12COC[C@H]1C2` (single isomer, unassigned) [Example 432, (1S,5S)—N-(7-methoxy-4-(1-methyl-3-phenyl-1H-pyrazol-4-yl)pyrido[3,2-d]pyrimidin-6-yl)-3-oxabicyclo[3.1.0]hexane-1-carboxamide or (1R,5R)—N-(7-methoxy-4-(1-methyl-3-phenyl-1H-pyrazol-4-yl)pyrido[3,2-d]pyrimidin-6-yl)-3-oxabicyclo[3.1.0]hexane-1-carboxamide], for which the half-inhibitory concentration (IC50) turned out to be 1.9 nM in assay [1], 0.9 nM in assay [2] and 2.5 nM in assay [3].

For the compound `COc1cc2ncnc(-c3cn(CC(F)F)nc3-c3ccccc3)c2cc1NC(=O)[C@]12COC[C@H]1C2` [Example 275, (1S,5S)—N-(4-(1-(2,2-difluoroethyl)-3-phenyl-1H-pyrazol-4-yl)-7-methoxyquinazolin-6-yl)-3-oxabicyclo[3.1.0]hexane-1-carboxamide], the IC50 in assay [1] came out at 1.9 nM; in assay [2] it was 1.3 nM; in assay [3], 1.9 nM.

With `COc1cc2ncnc(-c3cn(C)nc3-c3ccccc3)c2nc1O[C@@H](C)c1nnnn1C` [Example 45, (S)-7-methoxy-6-(1-(1-methyl-1H-tetrazol-5-yl)ethoxy)-4-(1-methyl-3-phenyl-1H-pyrazol-4-yl)pyrido[3,2-d]pyrimidine], the values for the IC50 in assay [1], in assay [2] and in assay [3] were 9.4 nM, 3.6 nM and 14.3 nM, respectively.
